Results on 14 compounds are retold here after US7419944B2, “Aqueous disinfecting systems” (Novartis AG, priority 2000, dated 2008).

Series [1] relates to Candida albicans. As to the kind of experiment: Semi-quantitative screen of common buffers plus approx. 1.2 ppm PHMB for antimicrobial activity. Format: cell-based. To be noted: for log reduction: buffer of equal molarity plus approx. 1.2 ppm PHMB, Candida albicans approx. 4x10^5 cfu/ml, estimated visually, in duplicate; for log reduction / estimated relative antimicrobial activity: 4.0 hour exposure; for estimated relative antimicrobial activity: buffer plus approx. 1.2 ppm PHMB, Candida albicans. How it is done:
In this example common buffers plus approximately 1.2 ppm PHMB are evaluated for antimicrobial activity against Candida albicans. The pH and molarity of each solution was adjusted to approximately the same values. In that log reductions are estimated by visual observation of solution color and/or pellet formation in the bottom of the test tube, the test is semi-quantitative. All tests were performed in duplicate. All of the biological buffers shown in are described in Biochemicals and Reagents, Sigma-Aldrich CO., 2000-2001 edition Sigma-Aldrich, or online at URL sigma-aldrich.com.
Tubes of sterile solutions of buffer of equal molarity plus approxiamately 1.2 ppm PHMB are challenged with a suspension of Candida albicans at approx. 4×10^5 cfu/ml. Following 4.0 hour exposure, aliquots of each test solution are serially diluted to 10^−5 in DEB. Following approx. 40 hours incubation at ˜32° C., the tubes are observed for discoloration of the DEB and for a pellet in the 10^−5 tube. The entire study is then performed in duplicate.

For series [2] the following is noted: cited from earlier work.

As for `NC(=O)CNCCS(=O)(=O)O` [ACES], in series [1], the log reduction is reported as less than 1 log.
The same measure, in the same setting: the same measure for `NC(=O)CN(CC(=O)O)CC(=O)O` [ADA]: “NONE”.
Still for that read-out and setting: the same measure for `O=S(=O)(O)CCN(CCO)CCO` [BES]: “NONE”.
With `OCC(CO)(CO)NCCCNC(CO)(CO)CO` [BIS-TRIS propane, 1,3-bis(tris[hydroxymethyl]methylamino)propane], in series [1], the log reduction was 2-3 log and the “estimated relative antimicrobial activity” value is on record as “superior activity”. Moreover, the “antimicrobial activity compared with solutions employing any of the other buffering agents” value in series [1] (screening study of 15 biological buffers with polyhexamethylene biguanide or alexidine) is on record as “significantly higher”. In addition, in series [2] (aqueous solutions), the “pH range useful as a buffering agent” value is given as 6.3-9.3. Besides, in series [2] (dissociation constant), the pKa1 was 6.8 and the pKa2 is 9.5.
In the case of `OCCN(CCO)C(CO)(CO)CO` [BIS-TRIS], in series [1], the log reduction was 1 log and the “estimated relative antimicrobial activity” value is recorded as “better activity than phosphate”.
In the case of `O=S(=O)(O)CC(O)CN(CCO)CCO` (stereo not shown) [DIPSO], the log reduction in series [1] was less than 1 log.
The same measure, in the same setting: the figure for `O=S(=O)(O)CCN1CCN(CCO)CC1` [HEPES] is less than 1 log; for `O=S(=O)(O)CCCCN1CCOCC1` [MOBS] it is less than 1 log.
Still for that read-out and setting: the same measure for `O=S(=O)(O)CC(O)CN1CCOCC1` (stereo not shown) [MOPSO]: “NONE”.
Still for that read-out and setting: the entry for `O=S(=O)(O)CCCN1CCOCC1` [MOPS] is “NONE”.
For the compound `O=S(=O)(O)CCN1CCN(CCS(=O)(=O)O)CC1` [PIPES], in series [1], the log reduction entry is given as “NONE”.
`O=S(=O)(O)CC(O)CNC(CO)(CO)CO` (stereo not shown) [TAPSO]: in series [1], the log reduction is 1 log and the “estimated relative antimicrobial activity” value is “better activity than phosphate”.
`O=S(=O)(O)CCNC(CO)(CO)CO` [TES]: the log reduction in series [1] was less than 1 log.
With Borate, in series [1], the log reduction is listed as 2-3 log and the “estimated relative antimicrobial activity” value is recorded as “superior activity”.
